{"source": "ChEMBL document CHEMBL1127385", "about": "“Synthesis and diuretic activity of alkyl- and arylguanidine analogs of N,N'-dicyclohexyl-4-morpholinecarboxamidine in rats and dogs” (J Med Chem, 1994)", "details_in_all_cases": "in vivo, po", "key": {"[1]": {"system": "Rattus norvegicus", "assay": "Total electrolytic excretion of potassium in urine of rats after peroral administration of 348 uM/Kg of drug", "type": "ADME, organism-based"}, "[2]": {"system": "Rattus norvegicus", "assay": "Total electrolytic excretion of potassium in urine of rats after peroral administration of 34.8 uM/Kg of drug", "type": "ADME, organism-based"}, "[3]": {"system": "Rattus norvegicus", "assay": "Total electrolytic excretion of potassium in urine of rats after peroral administration of 105 uM/Kg of drug", "type": "ADME, organism-based"}, "[4]": {"system": "Rattus norvegicus", "assay": "Total electrolytic excretion of sodium in urine of rats after peroral administration of 34.8 uM/Kg of drug", "type": "ADME, organism-based"}, "[5]": {"system": "Rattus norvegicus", "assay": "Ratio of Total electrolytic excretion of sodium and potassium in urine of rats after peroral administration of 34.8 uM/Kg of drug", "type": "ADME, organism-based"}, "[6]": {"system": "Rattus norvegicus", "assay": "Tested for the diuretic activity by measuring the urinary volume after peroral administering 348 uM/Kg of drug in rats", "type": "ADME, organism-based, Urine"}, "[7]": {"system": "Rattus norvegicus", "assay": "Total electrolytic excretion of sodium in urine of rats after peroral administration of 348 uM/Kg of drug", "type": "ADME, organism-based"}, "[8]": {"system": "Rattus norvegicus", "assay": "Total electrolytic excretion of chlorine in urine of rats after peroral administration of 348 uM/Kg of drug", "type": "ADME, organism-based"}, "[9]": {"system": "Rattus norvegicus", "assay": "Total electrolytic excretion of chlorine in urine of rats after peroral administration of 34.8 uM/Kg of drug", "type": "ADME, organism-based"}, "[10]": {"system": "Rattus norvegicus", "assay": "Total electrolytic excretion of sodium in urine of rats after peroral administration of 105 uM/Kg of drug", "type": "ADME, organism-based"}, "[11]": {"system": "Rattus norvegicus", "assay": "Tested for the diuretic activity by measuring the urinary volume after peroral administering 34.8 uM/Kg of drug in rats", "type": "ADME, organism-based, Urine"}, "[12]": {"system": "Rattus norvegicus", "assay": "Ratio of Total electrolytic excretion of sodium and potassium in urine of rats after peroral administration of 348 uM/Kg of drug", "type": "ADME, organism-based"}, "[13]": {"system": "Rattus norvegicus", "assay": "Ratio of Total electrolytic excretion of sodium and potassium in urine of rats after peroral administration of 105 uM/Kg of drug", "type": "ADME, organism-based"}, "[14]": {"system": "Rattus norvegicus", "assay": "Tested for the diuretic activity by measuring the urinary volume after peroral administering 105 uM/Kg of drug in rats", "type": "ADME, organism-based, Urine"}, "[15]": {"system": "Rattus norvegicus", "assay": "Total electrolytic excretion of chlorine in urine of rats after peroral administration of 105 uM/Kg of drug", "type": "ADME, organism-based"}}, "data": [{"compound": "c1ccc(N/C(=N/C2CCCCC2)N2CCOCC2)cc1", "values": [{"measurement": "Excretion K+", "setting": "[1]", "result": 0.4, "unit": "m equiv"}, {"measurement": "Excretion K+", "setting": "[2]", "result": 0.27, "unit": "m equiv"}, {"measurement": "Excretion K+", "setting": "[3]", "result": 0.37, "unit": "m equiv"}, {"measurement": "Excretion Na+", "setting": "[4]", "result": 0.93, "unit": "m equiv"}, {"measurement": "Ratio", "setting": "[5]", "result": 3.4}, {"measurement": "V", "setting": "[6]", "result": 9, "unit": "mL"}, {"measurement": "Excretion Na+", "setting": "[7]", "result": 1.37, "unit": "m equiv"}, {"measurement": "Excretion Cl-", "setting": "[8]", "result": 1.39, "unit": "m equiv"}, {"measurement": "Excretion Cl-", "setting": "[9]", "result": 1.04, "unit": "m equiv"}, {"measurement": "Excretion Na+", "setting": "[10]", "result": 1.02, "unit": "m equiv"}, {"measurement": "V", "setting": "[11]", "result": 5.6, "unit": "mL"}, {"measurement": "Ratio", "setting": "[12]", "result": 3.4}, {"measurement": "Ratio", "setting": "[13]", "result": 2.8}, {"measurement": "V", "setting": "[14]", "result": 7.3, "unit": "mL"}, {"measurement": "Excretion Cl-", "setting": "[15]", "result": 1.12, "unit": "m equiv"}]}]}
